{"source": "ChEMBL document CHEMBL2440076", "about": "“New triarylpyrazoles as broad-spectrum anticancer agents: design, synthesis, and biological evaluation” (Eur J Med Chem, 2013)", "assay_type_in_all_cases": "functional", "key": {"LOX IMVI": {"system": "LOX IMVI", "assay": "Growth inhibition of human LOXIMVI cells assessed as cell growth at 5X10'-5 M after 48 hrs by sulforhodamine B assay", "settings": "read-out: Activity"}, "NCI-H322M [1]": {"system": "NCI-H322M", "assay": "Growth inhibition of human NCI-H322M cells assessed as cell growth at 5X10'-5 M after 48 hrs by sulforhodamine B assay", "settings": "read-out: Activity"}, "NCI-H226 [2]": {"system": "NCI-H226", "assay": "Growth inhibition of human NCI-H226 cells assessed as cell growth at 5X10'-5 M after 48 hrs by sulforhodamine B assay", "settings": "NCI-H226, 48 h, read-out: Activity"}, "HOP-92": {"system": "HOP-92", "assay": "Growth inhibition of human HOP92 cells assessed as cell growth at 5X10'-5 M after 48 hrs by sulforhodamine B assay", "settings": "HOP-92, 48 h, read-out: Activity"}, "SR [3]": {"system": "SR", "assay": "Growth inhibition of human SR cells assessed as cell growth at 5X10'-5 M after 48 hrs by sulforhodamine B assay", "settings": "read-out: Activity"}, "CCRF-CEM": {"system": "CCRF-CEM", "assay": "Growth inhibition of human CCRF-CEM cells assessed as cell growth at 5X10'-5 M after 48 hrs by sulforhodamine B assay", "settings": "read-out: Activity"}, "U-251": {"system": "U-251", "assay": "Growth inhibition of human U251 cells assessed as cell growth at 5X10'-6 M after 48 hrs by sulforhodamine B assay", "settings": "U-251, 48 h, read-out: Activity"}, "COLO 205": {"system": "COLO 205", "assay": "Growth inhibition of human COLO205 cells assessed as cell growth at 5X10'-9 M after 48 hrs by sulforhodamine B assay", "settings": "COLO 205, 48 h, read-out: Activity"}, "A549 [4]": {"system": "A549", "assay": "Growth inhibition of human A549/ATCC cells assessed as cell growth at 5X10'-9 M after 48 hrs by sulforhodamine B assay", "settings": "A549, 48 h, read-out: Activity"}, "K562 [5]": {"system": "K562", "assay": "Growth inhibition of human K562 cells assessed as cell growth at 5X10'-9 M after 48 hrs by sulforhodamine B assay", "settings": "K562, 48 h, read-out: Activity"}, "SW-620 [6]": {"system": "SW-620", "assay": "Growth inhibition of human SW620 cells assessed as cell growth at 5X10'-6 M after 48 hrs by sulforhodamine B assay", "settings": "SW-620, 48 h, read-out: Activity"}, "KM12": {"system": "KM12", "assay": "Growth inhibition of human KM12 cells assessed as cell growth at 5X10'-6 M after 48 hrs by sulforhodamine B assay", "settings": "KM12, 48 h, read-out: Activity"}, "NCI-H322M [7]": {"system": "NCI-H322M", "assay": "Growth inhibition of human NCI-H322M cells assessed as cell growth at 5X10'-6 M after 48 hrs by sulforhodamine B assay", "settings": "read-out: Activity"}, "NCI-H226 [8]": {"system": "NCI-H226", "assay": "Growth inhibition of human NCI-H226 cells assessed as cell growth at 5X10'-6 M after 48 hrs by sulforhodamine B assay", "settings": "NCI-H226, 48 h, read-out: Activity"}, "A549 [9]": {"system": "A549", "assay": "Growth inhibition of human A549/ATCC cells assessed as cell growth at 5X10'-6 M after 48 hrs by sulforhodamine B assay", "settings": "A549, 48 h, read-out: Activity"}, "BT-549": {"system": "BT-549", "assay": "Growth inhibition of human BT549 cells assessed as cell growth at 5X10'-7 M after 48 hrs by sulforhodamine B assay", "settings": "BT-549, 48 h, read-out: Activity"}, "DU-145": {"system": "DU-145", "assay": "Growth inhibition of human DU145 cells assessed as cell growth at 5X10'-7 M after 48 hrs by sulforhodamine B assay", "settings": "DU-145, 48 h, read-out: Activity"}, "UO-31": {"system": "UO-31", "assay": "Growth inhibition of human UO31 cells assessed as cell growth at 5X10'-7 M after 48 hrs by sulforhodamine B assay", "settings": "UO-31, 48 h, read-out: Activity"}, "TK-10 [10]": {"system": "TK-10", "assay": "Growth inhibition of human TK10 cells assessed as cell growth at 5X10'-7 M after 48 hrs by sulforhodamine B assay", "settings": "TK-10, 48 h, read-out: Activity"}, "786-0": {"system": "786-0", "assay": "Growth inhibition of human 786-0 cells assessed as cell growth at 5X10'-7 M after 48 hrs by sulforhodamine B assay", "settings": "786-0, 48 h, read-out: Activity"}, "OVCAR-5": {"system": "OVCAR-5", "assay": "Growth inhibition of human OVCAR5 cells assessed as cell growth at 5X10'-7 M after 48 hrs by sulforhodamine B assay", "settings": "OVCAR-5, 48 h, read-out: Activity"}, "UACC-257": {"system": "UACC-257", "assay": "Growth inhibition of human UACC257 cells assessed as cell growth at 5X10'-7 M after 48 hrs by sulforhodamine B assay", "settings": "UACC-257, 48 h, read-out: Activity"}, "SF-295": {"system": "SF-295", "assay": "Growth inhibition of human SF295 cells assessed as cell growth at 5X10'-7 M after 48 hrs by sulforhodamine B assay", "settings": "SF-295, 48 h, read-out: Activity"}, "SR [11]": {"system": "SR", "assay": "Growth inhibition of human SR cells assessed as cell growth at 5X10'-7 M after 48 hrs by sulforhodamine B assay", "settings": "read-out: Activity"}, "HL-60(TB)": {"system": "HL-60(TB)", "assay": "Growth inhibition of human HL-60(TB) cells assessed as cell growth at 5X10'-7 M after 48 hrs by sulforhodamine B assay", "settings": "HL-60, 48 h, read-out: Activity"}, "MCF7 [12]": {"system": "MCF7", "assay": "Growth inhibition of human MCF7 cells assessed as cell growth at 5X10'-8 M after 48 hrs by sulforhodamine B assay", "settings": "MCF7, 48 h, read-out: Activity"}, "TK-10 [13]": {"system": "TK-10", "assay": "Growth inhibition of human TK10 cells assessed as cell growth at 5X10'-8 M after 48 hrs by sulforhodamine B assay", "settings": "TK-10, 48 h, read-out: Activity"}, "UACC-62": {"system": "UACC-62", "assay": "Growth inhibition of human UACC62 cells assessed as cell growth at 5X10'-8 M after 48 hrs by sulforhodamine B assay", "settings": "UACC-62, 48 h, read-out: Activity"}, "MDA-MB-468": {"system": "MDA-MB-468", "assay": "Growth inhibition of human MDA-MB-468 cells assessed as cell growth at 5X10'-5 M after 48 hrs by sulforhodamine B assay", "settings": "MDA-MB-468, 48 h, read-out: Activity"}, "MCF7 [14]": {"system": "MCF7", "assay": "Growth inhibition of human MCF7 cells assessed as cell growth at 5X10'-5 M after 48 hrs by sulforhodamine B assay", "settings": "MCF7, 48 h, read-out: Activity"}, "SN12C": {"system": "SN12C", "assay": "Growth inhibition of human SN12C cells assessed as cell growth at 5X10'-5 M after 48 hrs by sulforhodamine B assay", "settings": "read-out: Activity"}, "RXF 393": {"system": "RXF 393", "assay": "Growth inhibition of human RXF393 cells assessed as cell growth at 5X10'-5 M after 48 hrs by sulforhodamine B assay", "settings": "RXF 393, 48 h, read-out: Activity"}, "[15]": {"assay": "Growth inhibition of human HCC2998 cells assessed as cell growth at 5X10'-8 M after 48 hrs by sulforhodamine B assay", "settings": "HCC 2998, 48 h, read-out: Activity"}, "NCI-H322M [16]": {"system": "NCI-H322M", "assay": "Growth inhibition of human NCI-H322M cells assessed as cell growth at 5X10'-8 M after 48 hrs by sulforhodamine B assay", "settings": "read-out: Activity"}, "K562 [17]": {"system": "K562", "assay": "Growth inhibition of human K562 cells assessed as cell growth at 5X10'-8 M after 48 hrs by sulforhodamine B assay", "settings": "K562, 48 h, read-out: Activity"}, "OVCAR-3": {"system": "OVCAR-3", "assay": "Growth inhibition of human OVCAR3 cells assessed as cell growth at 5X10'-9 M after 48 hrs by sulforhodamine B assay", "settings": "OVCAR-3, 48 h, read-out: Activity"}, "SW-620 [18]": {"system": "SW-620", "assay": "Growth inhibition of human SW620 cells assessed as cell growth at 5X10'-9 M after 48 hrs by sulforhodamine B assay", "settings": "SW-620, 48 h, read-out: Activity"}}}
{"compound": "COc1cc(-c2nn(-c3cccc(NC(=O)Nc4cc(C(F)(F)F)cc(C(F)(F)F)c4)c3)cc2-c2ccncc2)ccc1Cl", "values": [{"measurement": "growth at 50 µM", "setting": "LOX IMVI", "result": -86, "unit": "%"}, {"measurement": "growth at 50 µM", "setting": "NCI-H322M [1]", "result": -58, "unit": "%"}, {"measurement": "growth at 50 µM", "setting": "NCI-H226 [2]", "result": -4, "unit": "%"}, {"measurement": "growth at 50 µM", "setting": "HOP-92", "result": -72, "unit": "%"}, {"measurement": "growth at 50 µM", "setting": "SR [3]", "result": -5, "unit": "%"}, {"measurement": "growth at 50 µM", "setting": "CCRF-CEM", "result": -8, "unit": "%"}, {"measurement": "growth at 5 µM", "setting": "U-251", "result": -77, "unit": "%"}, {"measurement": "growth at 0.005 µM", "setting": "COLO 205", "result": 107, "unit": "%"}, {"measurement": "growth at 0.005 µM", "setting": "A549 [4]", "result": 96, "unit": "%"}, {"measurement": "growth at 0.005 µM", "setting": "K562 [5]", "result": 99, "unit": "%"}, {"measurement": "growth at 5 µM", "setting": "SW-620 [6]", "result": -51, "unit": "%"}, {"measurement": "growth at 5 µM", "setting": "KM12", "result": -71, "unit": "%"}, {"measurement": "growth at 5 µM", "setting": "NCI-H322M [7]", "result": -24, "unit": "%"}, {"measurement": "growth at 5 µM", "setting": "NCI-H226 [8]", "result": 7, "unit": "%"}, {"measurement": "growth at 5 µM", "setting": "A549 [9]", "result": -31, "unit": "%"}, {"measurement": "growth at 0.5 µM", "setting": "BT-549", "result": 98, "unit": "%"}, {"measurement": "growth at 0.5 µM", "setting": "DU-145", "result": 86, "unit": "%"}, {"measurement": "growth at 0.5 µM", "setting": "UO-31", "result": 62, "unit": "%"}, {"measurement": "growth at 0.5 µM", "setting": "TK-10 [10]", "result": 78, "unit": "%"}, {"measurement": "growth at 0.5 µM", "setting": "786-0", "result": 92, "unit": "%"}, {"measurement": "growth at 0.5 µM", "setting": "OVCAR-5", "result": 82, "unit": "%"}, {"measurement": "growth at 0.5 µM", "setting": "UACC-257", "result": 82, "unit": "%"}, {"measurement": "growth at 0.5 µM", "setting": "SF-295", "result": 45, "unit": "%"}, {"measurement": "growth at 0.5 µM", "setting": "SR [11]", "result": 80, "unit": "%"}, {"measurement": "growth at 0.5 µM", "setting": "HL-60(TB)", "result": 75, "unit": "%"}, {"measurement": "growth at 0.05 µM", "setting": "MCF7 [12]", "result": 91, "unit": "%"}, {"measurement": "growth at 0.05 µM", "setting": "TK-10 [13]", "result": 98, "unit": "%"}, {"measurement": "growth at 0.05 µM", "setting": "UACC-62", "result": 93, "unit": "%"}, {"measurement": "growth at 50 µM", "setting": "MDA-MB-468", "result": -53, "unit": "%"}, {"measurement": "growth at 50 µM", "setting": "MCF7 [14]", "result": -5, "unit": "%"}, {"measurement": "growth at 50 µM", "setting": "SN12C", "result": -45, "unit": "%"}, {"measurement": "growth at 50 µM", "setting": "RXF 393", "result": -65, "unit": "%"}, {"measurement": "growth at 0.05 µM", "setting": "[15]", "result": 105, "unit": "%"}, {"measurement": "growth at 0.05 µM", "setting": "NCI-H322M [16]", "result": 103, "unit": "%"}, {"measurement": "growth at 0.05 µM", "setting": "K562 [17]", "result": 99, "unit": "%"}, {"measurement": "growth at 0.005 µM", "setting": "OVCAR-3", "result": 114, "unit": "%"}, {"measurement": "growth at 0.005 µM", "setting": "SW-620 [18]", "result": 98, "unit": "%"}]}
